Measurements published in US20240398831A1, “COMPOSITIONS COMPRISING SMALL MOLECULE REGULATORS OF TUMOR IMMUNITY AND METHODS OF USING SAME” (Duke University, priority 2021, published 2024).

Test system: CD68+ monocytes/TAMs
Test: Single cell RNA sequencing of tumor infiltrating immune cells from iBP tumors
Format: in vivo, mouse
Description: Single Cell RNA sequencing. iBP tumors (three) were pooled and a single cell suspension was isolated. Live tumor infiltrating immune cells (CD45^+ L/D^−) were isolated by cell sorting and resuspended in PBS+0.04% BSA at a concentration of 1000 cells/μL. In total, 10,000 cells were loaded on the 10× Genomics Chromium Controller Single-Cell Instrument (10× Genomics) mixed with reverse transcription reagents along with gel beads and oil to generate single-cell gel beads in emulsions (GEMs). GEM-RT was performed in an Eppendorf Mastercycler Pro (cat #950030020, Eppendorf): 53° C. for 45 min; 85° C. for 5 min; then held at 4° C. After reverse transcription, GEMs were disrupted and the single-stranded cDNA was purified using Dynabeads MyOne Silane beads (cat #37002D, Thermo Fisher Scientific). cDNA was amplified using the Eppendorf Mastercycler Pro (cat #950030020, Eppendorf): 98° C. for 3 min; cycled 11×: 98° C. for 15 s, 67° C. for 20 s, and 72° C. for 1 min; 72° C. for 1 min; held at 4° C. The amplified cDNA product was purified with the SPRIselect Reagent Kit (0.6×SPRI) (cat #B23318, Beckman Coulter). Indexed sequencing libraries were constructed using the reagents in the Chromium Single-Cell 3′ version 3 Library Kit, following these steps: (1) fragmentation, end repair and A-tailing; (2) SPRIselect cleanup; (3) adapter ligation; (4) post ligation cleanup with SPRIselect; (5) sample index PCR; (6) PostindexPCR cleanup. The barcoded sequencing libraries were analyzed using quantitative PCR (cat #KK4824, KAPA Biosystems Library Quantification Kit for Illumina platforms). Sequencing libraries were transferred to the Duke University Center for Genomic and Computational Biology (GCB) and were loaded on a NovaSeq6000 (Illumina) for sequencing.
scRNA seq data analysis. Sequencing data was de-multiplexed, trimmed, filtered, aligned, and quantified using the Cell Ranger pipeline (10× Genomics). Reads were aligned to CSC mm10 transcriptome and UMI count matrices for each sample was obtained. The Seurat v3.1 package was used to count matrices. For each sample, cells that express <200 or >2000 genes and cells that express >5% of mitochondrial genes were removed. Highly variable genes were identified and used for principal component analysis. Cell subpopulations were identified using the ‘FindNeighbors’ function with first 30 PCs and ‘FindClusters’ function from Seurat R package with default resolution parameters. Cells were then clustered and visualized using uniform manifold approximation and projection (UMAP) (Liu, Int. J. Mol. Sci. 2020, 21, 16). DE Wilcoxon test analysis was used to identify genes that define a cluster using known cell type signatures and genes that differ within clusters between treatments.
Pseudotime Analysis. To infer the developmental trajectories in the monocyte/macrophage lineages, Monocle3 was used to perform the pseudotime analysis where UMAP coordinates from Seurat were used as input (Cao et al., Nature 2019, 566, 498-502). The graphtest function implemented in Monocle3 was used to find genes that vary with pseudotime where genes with q<0.01 were identified as pseudotime-dependent genes. Cells were divided into four pseudotime blocks (e.g., 0-5, 5-10, 10-15, and 15-21) based on their pseudotime estimate.

[1] = CD68+ cells, Genes down-regulated upon E2 treatment
[2] = CD68+ cells, Genes up-regulated upon E2 treatment

Substance: 17β-estradiol [E2]
- AA467197 avg_logFC [1]: −1.1474
- Actg1 avg_logFC [1]: −0.2725
- Adam8 avg_logFC [1]: −0.5315
- Arg1 avg_logFC [1]: −1.491
- Arl4c avg_logFC [1]: −0.3255
- Ass1 avg_logFC [1]: −0.2981
- B4galt1 avg_logFC [1]: −0.2593
- Bhlhe40 avg_logFC [1]: −0.4214
- Bnip3 avg_logFC [1]: −0.3241
- Cbl avg_logFC [1]: −0.2587
- Ccl24 avg_logFC [1]: −1.196
- Cd44 avg_logFC [1]: −0.3636
- Cd53 avg_logFC [1]: −0.2831
- Cdh1 avg_logFC [1]: −0.4682
- Cish avg_logFC [1]: −0.2878
- Clec7a avg_logFC [1]: −0.6823
- Clic4 avg_logFC [1]: −0.2836
- Cox17 avg_logFC [1]: −0.2516
- Csrnp1 avg_logFC [1]: −0.2796
- Cxcl2 avg_logFC [1]: −0.3108
- Dazap2 avg_logFC [1]: −0.253
- Ddx3x avg_logFC [1]: −0.2648
- Dusp5 avg_logFC [1]: −0.2644
- Emp1 avg_logFC [1]: −0.3016
- Epb41l2 avg_logFC [1]: −0.2668
- Ero1l avg_logFC [1]: −0.3681
- Errfi1 avg_logFC [1]: −0.2612
- Etv3 avg_logFC [1]: −0.2533
- Fam129b avg_logFC [1]: −0.2732
- Gatm avg_logFC [1]: −0.4728
- Gm13339 avg_logFC [1]: −0.3235
- Gm42418 avg_logFC [1]: −0.3099
- Grina avg_logFC [1]: −0.2527
- Havcr2 avg_logFC [1]: −0.2738
- Hbegf avg_logFC [1]: −0.2883
- Hexim1 avg_logFC [1]: −0.2598
- Hif1a avg_logFC [1]: −0.3016
- Hilpda avg_logFC [1]: −0.3818
- Hk2 avg_logFC [1]: −0.3161
- Hnrnpa2b1 avg_logFC [1]: −0.2507
- Hnrnpu avg_logFC [1]: −0.2502
- Id2 avg_logFC [1]: −0.3235
- Ifi202b avg_logFC [1]: −0.4589
- Ighm avg_logFC [1]: −0.2694
- Il1rn avg_logFC [1]: −0.7087
- Itgax avg_logFC [1]: −0.2718
- Jak2 avg_logFC [1]: −0.3294
- Lars2 avg_logFC [1]: −0.2737
- Lcp1 avg_logFC [1]: −0.279
- Lyz1 avg_logFC [1]: −0.3109
- Mafb avg_logFC [1]: −0.2732
- Malt1 avg_logFC [1]: −0.4497
- Mir6236 avg_logFC [1]: −0.4795
- Mmp14 avg_logFC [1]: −0.4234
- N4bp1 avg_logFC [1]: −0.2723
- Nampt avg_logFC [1]: −0.2539
- Nfkb1 avg_logFC [1]: −0.3187
- Pabpc1 avg_logFC [1]: −0.3065
- Plek avg_logFC [1]: −0.3121
- Prkcd avg_logFC [1]: −0.4952
- Ptgs2 avg_logFC [1]: −0.2589
- Qsox1 avg_logFC [1]: −0.2981
- Rbbp6 avg_logFC [1]: −0.2693
- Rbms1 avg_logFC [1]: −0.306
- Rbpj avg_logFC [1]: −0.2858
- Retnla avg_logFC [1]: −1.013
- Rgcc avg_logFC [1]: −0.3356
- Rhob avg_logFC [1]: −0.3443
- Rnf19b avg_logFC [1]: −0.4071
- Rpl23a avg_logFC [1]: −0.3395
- Scd2 avg_logFC [1]: −0.3267
- Sdc4 avg_logFC [1]: −0.5729
- Slc2a1 avg_logFC [1]: −0.2726
- Slc7a2 avg_logFC [1]: −0.4582
- Slc7a11 avg_logFC [1]: −0.3846
- Slpi avg_logFC [1]: −0.3695
- Smox avg_logFC [1]: −0.2743
- Spp1 avg_logFC [1]: −0.5367
- Srgn avg_logFC [1]: −0.3751
- Tapbp avg_logFC [1]: −0.2542
- Tes avg_logFC [1]: −0.2663
- Tgfbi avg_logFC [1]: −0.2874
- Tgm2 avg_logFC [1]: −0.345
- Timp1 avg_logFC [1]: −0.3922
- Ywhaz avg_logFC [1]: −0.3465
- Zeb2 avg_logFC [1]: −0.2704
- Zfp36l2 avg_logFC [1]: −0.2732
- AF251705 avg_logFC [2]: 0.2639
- Al607873 avg_logFC [2]: 0.2786
- Apoe avg_logFC [2]: 0.569
- Arl5c avg_logFC [2]: 0.2656
- Bst2 avg_logFC [2]: 0.2961
- C1qa avg_logFC [2]: 0.4214
- C1qb avg_logFC [2]: 0.5188
- C1qc avg_logFC [2]: 0.4208
- Ccrl2 avg_logFC [2]: 0.3263
- Cd14 avg_logFC [2]: 0.2715
- Cd48 avg_logFC [2]: 0.2715
- Cfh avg_logFC [2]: 0.2625
- Chil3 avg_logFC [2]: 1.253
- Ckb avg_logFC [2]: 0.2847
- Cst3 avg_logFC [2]: 0.3446
- Dpep2 avg_logFC [2]: 0.3725
- Fcer1g avg_logFC [2]: 0.3137
- Fcrls avg_logFC [2]: 0.5638
- Gdf3 avg_logFC [2]: 0.2851
- Gm10076 avg_logFC [2]: 0.3757
- Gm10222 avg_logFC [2]: 0.2577
- H2-D1 avg_logFC [2]: 0.2808
- Hint1 avg_logFC [2]: 0.2548
- Id3 avg_logFC [2]: 0.2699
- Ifi27l2a avg_logFC [2]: 0.5245
- Ifitrn2 avg_logFC [2]: 0.374
- Ifitrn3 avg_logFC [2]: 0.2755
- Itga6 avg_logFC [2]: 0.3437
- Itm2b avg_logFC [2]: 0.4104
- Lrg1 avg_logFC [2]: 0.3663
- Ly6c2 avg_logFC [2]: 0.2657
- Lyz2 avg_logFC [2]: 0.2885
- Mgl2 avg_logFC [2]: 0.5712
- Mt1 avg_logFC [2]: 0.4006
- Pf4 avg_logFC [2]: 0.4715
- Rgs10 avg_logFC [2]: 0.2599
- Rpl3 avg_logFC [2]: 0.278
- Rpl9 avg_logFC [2]: 0.2585
- Rpl21 avg_logFC [2]: 0.2567
- Rpl29 avg_logFC [2]: 0.2548
- Rplp0 avg_logFC [2]: 0.333
- Rps2 avg_logFC [2]: 0.2742
- Rps11 avg_logFC [2]: 0.2704
- Rps20 avg_logFC [2]: 0.2922
- S100a8 avg_logFC [2]: 0.7858
- Thbs1 avg_logFC [2]: 0.3189
- Trem2 avg_logFC [2]: 0.4831
- Tspo avg_logFC [2]: 0.2604
- Tmem176 avg_logFC (CD68+ cells, Genes up-regulated upon E2 treatment, first Tmem176 line): 0.3209
- Tmem176 avg_logFC (CD68+ cells, Genes up-regulated upon E2 treatment, second Tmem176 line): 0.3394
- inflammation/chemokine genes (Itm2b, C1q) and M2 macrophage markers (Tspo, Vegfa, Tgm2) in CD68+ cells (E2 group): upregulated
- TAM markers (Trem2, Apoe, Thbs1, Spp1) in CD68+ monocyte/TAM population (E2 treated tumors): expressed
- CD68+ monocytes/TAMs clusters (E2 vs placebo): expansion and significant changes in gene expression
- cluster 1 (M1-like TAMs) (E2 vs placebo): remained unchanged
- cluster 3 (inflammatory monocytes) (E2 vs placebo): increased
- cluster 8 (E2 vs placebo): expansion
- cluster 9 (immune-suppressive phenotype) (E2 vs placebo): significant expansion
- cluster 15 (M1-like TAMs) (E2 vs placebo): decreased
- cluster 16 (patrolling tissue resident monocytes) (E2 vs placebo): increased
- cluster 22 (E2 vs placebo): remained unchanged
- cluster 30 (E2 vs placebo): expansion
- percentage of Ly6C^hi monocytes (cluster 2) (E2 vs placebo): remained the same
